Results: PMC12777568 (Antimicrobial Agents and Chemotherapy, 2025)
Read-outs that look alike come from different tables or passages of the source.

Tests used:
[1] = BIC plasma pharmacokinetics, Phase 1 open-label single-dose DDI study GS-US-380-3909 (B/F/TAF 50/200/25 mg with antacid or mineral supplements); assay type: in vivo, human; settings: both sexes, human, plasma, oral; for AUC(0-t): BIC plasma AUClast; for Tmax: BIC plasma Tmax, median (Q1, Q3)
Method: Eligible participants were adult (18–45 years) males and non-pregnant, non-lactating females in good general health at a screening evaluation performed no more than 28 days before the first study dose. […] Full eligibility criteria are available in the supplement. All prescription and over-the-counter medications except vitamins, acetaminophen, ibuprofen, and hormonal contraceptives were not permitted during study participation. Three dosing cohorts were evaluated (Table 1). […] Vitamins and/or other supplements were not permitted on the dosing day. […] Participants received maximum-strength antacid oral suspension (four teaspoons; 20 mL; 1,600 mg aluminum hydroxide/1,600 mg magnesium hydroxide/160 mg simethicone; referred to as “aluminum/magnesium-containing antacid”) on Day 9, calcium carbonate (1,200 mg; 2 × 600 mg tablets) on Day 17, and ferrous fumarate (1 × 324 mg tablet) on Day 25. […] All samples were analyzed within the timeframe determined using frozen stability storage data. […] PK parameters were estimated using Phoenix WinNonlin software (Version 6.4, Pharsight Corporation, Princeton, NJ, USA) using standard noncompartmental analysis methods. […] The estimated 90% CIs were compared to a prespecified lack of DDI boundary of 70%–143%. […] A minimum of 12 evaluable participants in each cohort was calculated to be needed to reject the null hypothesis (i.e., the 90% CI for the GLSM ratio for each PK parameter was outside the prespecified boundary) with ≥90% power.

[2] = set-up: method as in earlier work; settings: cited from earlier work
[3] = test system: HIV-1 integrase-DNA complexes; settings: cited from earlier work

O=C(NCc1c(F)cc(F)cc1F)c1cn2c(c(O)c1=O)C(=O)N1[C@H]3CC[C@H](C3)O[C@@H]1C2 [BIC, bictegravir]
AUC(0-inf) ([1]; BIC plasma AUCinf, mean (%CV), Cohort 3, B/F/TAF alone (fasted), N = 14): 93700 ng·h/mL
AUC(0-inf) ([1]; BIC plasma AUCinf, mean (%CV), Cohort 3 fed, B/F/TAF + aluminum/magnesium-containing antacid simultaneous, N = 14): 50800 ng·h/mL
AUC(0-inf) ([1]; BIC plasma AUCinf, mean (%CV), Cohort 3 fed, B/F/TAF + calcium carbonate simultaneous, N = 14): 94800 ng·h/mL
AUC(0-inf) ([1]; BIC plasma AUCinf, mean (%CV), Cohort 3 fed, B/F/TAF + ferrous fumarate simultaneous, N = 14): 77300 ng·h/mL
AUC(0-t) ([1]; mean (%CV), Cohort 1 fasted, B/F/TAF + aluminum/magnesium-containing antacid simultaneous, N = 14): 26200 ng·h/mL
AUC(0-t) ([1]; mean (%CV), Cohort 1 fasted, B/F/TAF + calcium carbonate simultaneous, N = 14): 80400 ng·h/mL
AUC(0-t) ([1]; mean (%CV), Cohort 1 fasted, B/F/TAF + ferrous fumarate simultaneous, N = 14): 43400 ng·h/mL
AUC(0-t) ([1]; mean (%CV), Cohort 1 fasted, B/F/TAF alone, N = 14): 117000 ng·h/mL
AUC(0-t) ([1]; mean (%CV), Cohort 2 fasted, B/F/TAF 2 hours after aluminum/magnesium-containing antacid, N = 13): 63400 ng·h/mL
AUC(0-t) ([1]; mean (%CV), Cohort 2 fasted, B/F/TAF 2 hours before aluminum/magnesium-containing antacid, N = 13): 111000 ng·h/mL
AUC(0-t) ([1]; mean (%CV), Cohort 2 fasted, B/F/TAF alone, N = 14): 125000 ng·h/mL
AUC(0-t) ([1]; mean (%CV), Cohort 3, B/F/TAF alone (fasted), N = 14): 91200 ng·h/mL
AUC(0-t) ([1]; mean (%CV), Cohort 3 fed, B/F/TAF + aluminum/magnesium-containing antacid simultaneous, N = 14): 49200 ng·h/mL
AUC(0-t) ([1]; mean (%CV), Cohort 3 fed, B/F/TAF + calcium carbonate simultaneous, N = 14): 91500 ng·h/mL
AUC(0-t) ([1]; mean (%CV), Cohort 3 fed, B/F/TAF + ferrous fumarate simultaneous, N = 14): 74500 ng·h/mL
concentration at 24 h ([1]; BIC plasma C24, mean (%CV), Cohort 1 fasted, B/F/TAF + aluminum/magnesium-containing antacid simultaneous, N = 14): 430 ng/mL
concentration at 24 h ([1]; BIC plasma C24, mean (%CV), Cohort 1 fasted, B/F/TAF + calcium carbonate simultaneous, N = 14): 1220 ng/mL
concentration at 24 h ([1]; BIC plasma C24, mean (%CV), Cohort 1 fasted, B/F/TAF + ferrous fumarate simultaneous, N = 14): 670 ng/mL
concentration at 24 h ([1]; BIC plasma C24, mean (%CV), Cohort 1 fasted, B/F/TAF alone, N = 14): 1800 ng/mL
concentration at 24 h ([1]; BIC plasma C24, mean (%CV), Cohort 2 fasted, B/F/TAF 2 hours after aluminum/magnesium-containing antacid, N = 13): 990 ng/mL
concentration at 24 h ([1]; BIC plasma C24, mean (%CV), Cohort 2 fasted, B/F/TAF 2 hours before aluminum/magnesium-containing antacid, N = 13): 1700 ng/mL
concentration at 24 h ([1]; BIC plasma C24, mean (%CV), Cohort 2 fasted, B/F/TAF alone, N = 14): 2010 ng/mL
concentration at 24 h ([1]; BIC plasma C24, mean (%CV), Cohort 3, B/F/TAF alone (fasted), N = 14): 1410 ng/mL
concentration at 24 h ([1]; BIC plasma C24, mean (%CV), Cohort 3 fed, B/F/TAF + aluminum/magnesium-containing antacid simultaneous, N = 14): 800 ng/mL
concentration at 24 h ([1]; BIC plasma C24, mean (%CV), Cohort 3 fed, B/F/TAF + calcium carbonate simultaneous, N = 14): 1460 ng/mL
concentration at 24 h ([1]; BIC plasma C24, mean (%CV), Cohort 3 fed, B/F/TAF + ferrous fumarate simultaneous, N = 14): 1230 ng/mL
Cmax ([1]; BIC plasma Cmax, mean (%CV), Cohort 1 fasted, B/F/TAF + aluminum/magnesium-containing antacid simultaneous, N = 14): 1200 ng/mL
Cmax ([1]; BIC plasma Cmax, mean (%CV), Cohort 1 fasted, B/F/TAF + ferrous fumarate simultaneous, N = 14): 1670 ng/mL
Cmax ([1]; BIC plasma Cmax, mean (%CV), Cohort 2 fasted, B/F/TAF 2 hours after aluminum/magnesium-containing antacid, N = 13): 2740 ng/mL
Cmax ([1]; BIC plasma Cmax, mean (%CV), Cohort 3 fed, B/F/TAF + aluminum/magnesium-containing antacid simultaneous, N = 14): 2450 ng/mL
Cmax ([1]; BIC plasma Cmax, mean (%CV), Cohort 3 fed, B/F/TAF + calcium carbonate simultaneous, N = 14): 4110 ng/mL
Tmax ([1]; Cohort 1 fasted, B/F/TAF + ferrous fumarate simultaneous, N = 14): 3.5 h
Tmax ([1]; Cohort 3 fed, B/F/TAF + aluminum/magnesium-containing antacid simultaneous, N = 14): 3.5 h
Tmax ([1]; Cohort 3 fed, B/F/TAF + calcium carbonate simultaneous, N = 14): 3.5 h
Tmax ([1]; Cohort 3 fed, B/F/TAF + ferrous fumarate simultaneous, N = 14): 4 h
AUC(0-inf) ([1]; Cohort 1 fasted, B/F/TAF with aluminum/magnesium-containing antacid simultaneous, N = 14, read-out: AUCinf, test GLSM): 25200 ng·h/mL
concentration at 24 h ([1]; Cohort 1 fasted, B/F/TAF with aluminum/magnesium-containing antacid simultaneous, N = 14, read-out: C24, test GLSM): 380 ng/mL
Cmax ([1]; Cohort 1 fasted, B/F/TAF with aluminum/magnesium-containing antacid simultaneous, N = 14, read-out: Cmax, test GLSM): 1100 ng/mL
AUC(0-inf) ([1]; Cohort 1 fasted, B/F/TAF with calcium carbonate simultaneous, N = 14, read-out: AUCinf, test GLSM): 79100 ng·h/mL
concentration at 24 h ([1]; Cohort 1 fasted, B/F/TAF with calcium carbonate simultaneous, N = 14, read-out: C24, test GLSM): 1130 ng/mL
Cmax ([1]; Cohort 1 fasted, B/F/TAF with calcium carbonate simultaneous, N = 14, read-out: Cmax, test GLSM): 3230 ng/mL
AUC(0-inf) ([1]; Cohort 1 fasted, B/F/TAF with ferrous fumarate simultaneous, N = 14, read-out: AUCinf, test GLSM): 44000 ng·h/mL
concentration at 24 h ([1]; Cohort 1 fasted, B/F/TAF with ferrous fumarate simultaneous, N = 14, read-out: C24, test GLSM): 640 ng/mL
Cmax ([1]; Cohort 1 fasted, B/F/TAF with ferrous fumarate simultaneous, N = 14, read-out: Cmax, test GLSM): 1610 ng/mL
AUC(0-inf) ([1]; Cohort 1 fasted, BIC alone (N = 14), read-out: AUCinf, reference GLSM): 119000 ng·h/mL
concentration at 24 h ([1]; Cohort 1 fasted, BIC alone (N = 14), read-out: C24, reference GLSM): 1740 ng/mL
AUC(0-inf) ([1]; Cohort 2 fasted, B/F/TAF 2 h after aluminum/magnesium-containing antacid, N = 14, read-out: AUCinf, test GLSM): 61100 ng·h/mL
concentration at 24 h ([1]; Cohort 2 fasted, B/F/TAF 2 h after aluminum/magnesium-containing antacid, N = 14, read-out: C24, test GLSM): 900 ng/mL
Cmax ([1]; Cohort 2 fasted, B/F/TAF 2 h after aluminum/magnesium-containing antacid, N = 14, read-out: Cmax, test GLSM): 2430 ng/mL
AUC(0-inf) ([1]; Cohort 2 fasted, B/F/TAF 2 h before aluminum/magnesium-containing antacid, N = 14, read-out: AUCinf, test GLSM): 111000 ng·h/mL
concentration at 24 h ([1]; Cohort 2 fasted, B/F/TAF 2 h before aluminum/magnesium-containing antacid, N = 14, read-out: C24, test GLSM): 1650 ng/mL
AUC(0-inf) ([1]; Cohort 2 fasted, BIC alone (N = 14), read-out: AUCinf, reference GLSM): 128000 ng·h/mL
concentration at 24 h ([1]; Cohort 2 fasted, BIC alone (N = 14), read-out: C24, reference GLSM): 1930 ng/mL
Cmax ([1]; Cohort 2 fasted, BIC alone (N = 14), read-out: Cmax, reference GLSM): 5840 ng/mL
AUC(0-inf) ([1]; Cohort 3, BIC alone (N = 14), fasted, read-out: AUCinf, reference GLSM): 89900 ng·h/mL
concentration at 24 h ([1]; Cohort 3, BIC alone (N = 14), fasted, read-out: C24, reference GLSM): 1350 ng/mL
AUC(0-inf) ([1]; Cohort 3 fed, B/F/TAF with aluminum/magnesium-containing antacid simultaneous, N = 14, read-out: AUCinf, test GLSM): 47900 ng·h/mL
concentration at 24 h ([1]; Cohort 3 fed, B/F/TAF with aluminum/magnesium-containing antacid simultaneous, N = 14, read-out: C24, test GLSM): 750 ng/mL
Cmax ([1]; Cohort 3 fed, B/F/TAF with aluminum/magnesium-containing antacid simultaneous, N = 14, read-out: Cmax, test GLSM): 2340 ng/mL
AUC(0-inf) ([1]; Cohort 3 fed, B/F/TAF with calcium carbonate simultaneous, N = 14, read-out: AUCinf, test GLSM): 92900 ng·h/mL
concentration at 24 h ([1]; Cohort 3 fed, B/F/TAF with calcium carbonate simultaneous, N = 14, read-out: C24, test GLSM): 1430 ng/mL
Cmax ([1]; Cohort 3 fed, B/F/TAF with calcium carbonate simultaneous, N = 14, read-out: Cmax, test GLSM): 4070 ng/mL
AUC(0-inf) ([1]; Cohort 3 fed, B/F/TAF with ferrous fumarate simultaneous, N = 14, read-out: AUCinf, test GLSM): 75400 ng·h/mL
concentration at 24 h ([1]; Cohort 3 fed, B/F/TAF with ferrous fumarate simultaneous, N = 14, read-out: C24, test GLSM): 1200 ng/mL
Cmax ([1]; Cohort 3 fed, B/F/TAF with ferrous fumarate simultaneous, N = 14, read-out: Cmax, test GLSM): 3410 ng/mL
half-life for BIC (median T1/2) [2]: ~ 17 hours
dissociation half-life [3]: ~ 163 hours
